Assay results published in the NIST ThermoML archive (doi:10.1021/je7001946).
± gives the expanded uncertainty stated by the source.

Assay: mn = molality of the nth substance listed, in mol/kg
Conditions: 101.3 kPa, Liquid; for speed of sound: Pulse-echo method

[Br][Co][Br] [cobalt(II) bromide] + CC#N
Conditions | mass density, 288.15 K [kg/m3] | mass density, 293.15 K [kg/m3] | mass density, 298.15 K [kg/m3] | mass density, 303.15 K [kg/m3] | mass density, 308.15 K [kg/m3] | mass density, 313.15 K [kg/m3] | mass density, 323.15 K [kg/m3] | speed of sound, 298.15 K [m/s]
m1 = 0.06384 | 797.529 ± 0.59 | 792.118 ± 0.59 | 786.677 ± 0.6 | 781.218 ± 0.61 | 775.72 ± 0.61 | 770.192 ± 0.62 | 759.026 ± 0.63 | –
m1 = 0.08092 | 800.3 ± 0.59 | 794.88 ± 0.59 | 789.432 ± 0.6 | 783.966 ± 0.6 | 778.458 ± 0.61 | 772.92 ± 0.62 | 761.738 ± 0.63 | –
m1 = 0.09698 | 802.926 ± 0.58 | 797.495 ± 0.59 | 792.044 ± 0.6 | 786.563 ± 0.6 | 781.049 ± 0.61 | 775.5 ± 0.62 | 764.302 ± 0.63 | 1277 ± 1.2
m1 = 0.1125 | 805.465 ± 0.58 | 800.033 ± 0.59 | 794.565 ± 0.59 | 789.08 ± 0.6 | 783.57 ± 0.61 | 778.02 ± 0.61 | 766.801 ± 0.63 | –
m1 = 0.1286 | 808.142 ± 0.58 | 802.7 ± 0.58 | 797.232 ± 0.59 | 791.742 ± 0.6 | 786.222 ± 0.6 | 780.656 ± 0.61 | 769.421 ± 0.62 | 1276 ± 1.2
m1 = 0.1428 | 810.505 ± 0.57 | 805.061 ± 0.58 | 799.583 ± 0.59 | 794.089 ± 0.59 | 788.55 ± 0.6 | 782.985 ± 0.61 | 771.734 ± 0.62 | –
m1 = 0.1587 | 813.161 ± 0.57 | 807.703 ± 0.58 | 802.224 ± 0.58 | 796.713 ± 0.59 | 791.168 ± 0.6 | 785.595 ± 0.6 | 774.335 ± 0.62 | 1275.3 ± 1.2
m1 = 0.19 | 818.466 ± 0.57 | 812.988 ± 0.57 | 807.489 ± 0.58 | 801.964 ± 0.59 | 796.411 ± 0.59 | 790.822 ± 0.6 | 779.533 ± 0.61 | 1274.6 ± 1.2
m1 = 0.2204 | 823.615 ± 0.56 | 818.13 ± 0.57 | 812.623 ± 0.57 | 807.083 ± 0.58 | 801.513 ± 0.59 | 795.917 ± 0.59 | 784.593 ± 0.61 | 1273.9 ± 1.2
m1 = 0.2527 | 829.214 ± 0.56 | 823.715 ± 0.56 | 818.194 ± 0.57 | 812.642 ± 0.57 | 807.057 ± 0.58 | 801.45 ± 0.59 | 790.088 ± 0.6 | –
m1 = 0.2636 | 831.14 ± 0.55 | 825.637 ± 0.56 | 820.113 ± 0.57 | 814.557 ± 0.57 | 808.967 ± 0.58 | 803.34 ± 0.58 | 791.988 ± 0.6 | 1273.2 ± 1.2
m1 = 0.2777 | 833.591 ± 0.55 | 828.085 ± 0.56 | 822.557 ± 0.56 | 816.995 ± 0.57 | 811.404 ± 0.58 | 805.778 ± 0.58 | 794.405 ± 0.6 | –
m1 = 0.3089 | 839.134 ± 0.55 | 833.612 ± 0.55 | 828.072 ± 0.56 | 822.494 ± 0.56 | 816.889 ± 0.57 | 811.253 ± 0.58 | 799.854 ± 0.59 | 1272.1 ± 1.2

[Br-].[Br-].[Mn+2] [manganese(II) bromide] + CC#N
Conditions | mass density, 288.15 K [kg/m3] | mass density, 293.15 K [kg/m3] | mass density, 298.15 K [kg/m3] | mass density, 303.15 K [kg/m3] | mass density, 308.15 K [kg/m3] | mass density, 313.15 K [kg/m3] | mass density, 323.15 K [kg/m3] | speed of sound, 298.15 K [m/s]
m1 = 0.0415 | 793.652 ± 0.59 | 788.26 ± 0.6 | 782.85 ± 0.6 | 777.408 ± 0.61 | 771.942 ± 0.62 | 766.441 ± 0.62 | 755.33 ± 0.64 | –
m1 = 0.0513 | 795.156 ± 0.59 | 789.764 ± 0.6 | 784.353 ± 0.6 | 778.907 ± 0.61 | 773.433 ± 0.62 | 767.926 ± 0.62 | 756.805 ± 0.64 | –
m1 = 0.06115 | 796.676 ± 0.59 | 791.28 ± 0.59 | 785.862 ± 0.6 | 780.415 ± 0.61 | 774.941 ± 0.61 | 769.432 ± 0.62 | 758.311 ± 0.63 | 1277.2 ± 1.2
m1 = 0.07131 | 798.243 ± 0.59 | 792.85 ± 0.59 | 787.428 ± 0.6 | 781.978 ± 0.61 | 776.494 ± 0.61 | 770.984 ± 0.62 | 759.855 ± 0.63 | –
m1 = 0.08138 | 799.819 ± 0.58 | 794.414 ± 0.59 | 788.989 ± 0.6 | 783.537 ± 0.6 | 778.054 ± 0.61 | 772.539 ± 0.62 | 761.403 ± 0.63 | 1276.9 ± 1.2
m1 = 0.09054 | 801.238 ± 0.58 | 795.84 ± 0.59 | 790.408 ± 0.6 | 784.953 ± 0.6 | 779.461 ± 0.61 | 773.94 ± 0.62 | 762.804 ± 0.63 | –
m1 = 0.1006 | 802.824 ± 0.58 | 797.413 ± 0.59 | 791.982 ± 0.59 | 786.518 ± 0.6 | 781.03 ± 0.61 | 775.513 ± 0.61 | 764.368 ± 0.63 | 1276.7 ± 1.2
m1 = 0.1214 | 806.091 ± 0.58 | 800.671 ± 0.58 | 795.23 ± 0.59 | 789.765 ± 0.6 | 784.269 ± 0.6 | 778.744 ± 0.61 | 767.585 ± 0.62 | –
m1 = 0.1406 | 809.125 ± 0.57 | 803.696 ± 0.58 | 798.249 ± 0.59 | 792.776 ± 0.59 | 787.272 ± 0.6 | 781.741 ± 0.61 | 770.567 ± 0.62 | 1276.1 ± 1.2
m1 = 0.1603 | 812.287 ± 0.57 | 806.853 ± 0.58 | 801.398 ± 0.58 | 795.916 ± 0.59 | 790.407 ± 0.6 | 784.868 ± 0.6 | 773.687 ± 0.62 | –
m1 = 0.1712 | 814.024 ± 0.57 | 808.58 ± 0.57 | 803.121 ± 0.58 | 797.634 ± 0.59 | 792.128 ± 0.59 | 786.584 ± 0.6 | 775.396 ± 0.61 | 1275.7 ± 1.2
m1 = 0.1804 | 815.501 ± 0.57 | 810.054 ± 0.57 | 804.59 ± 0.58 | 799.11 ± 0.59 | 793.589 ± 0.59 | 788.041 ± 0.6 | 776.847 ± 0.61 | –
m1 = 0.1995 | 818.585 ± 0.56 | 813.117 ± 0.57 | 807.642 ± 0.58 | 802.149 ± 0.58 | 796.622 ± 0.59 | 791.065 ± 0.6 | 779.856 ± 0.61 | 1275.3 ± 1.2

[Br-].[Br-].[Zn+2] [zinc bromide] + CC#N
Conditions | mass density, 288.15 K [kg/m3] | mass density, 293.15 K [kg/m3] | mass density, 298.15 K [kg/m3] | mass density, 303.15 K [kg/m3] | mass density, 308.15 K [kg/m3] | mass density, 313.15 K [kg/m3] | mass density, 323.15 K [kg/m3] | speed of sound, 298.15 K [m/s]
m1 = 0.02964 | – | – | – | – | – | – | – | 1277.1 ± 1.2
m1 = 0.03209 | 792.171 ± 0.59 | 786.781 ± 0.6 | 781.365 ± 0.61 | 775.922 ± 0.61 | 770.453 ± 0.62 | 764.95 ± 0.62 | 753.836 ± 0.64 | –
m1 = 0.0404 | 793.435 ± 0.59 | 788.04 ± 0.6 | 782.622 ± 0.6 | 777.179 ± 0.61 | 771.701 ± 0.62 | 766.197 ± 0.62 | 755.075 ± 0.64 | –
m1 = 0.04717 | 794.467 ± 0.59 | 789.072 ± 0.6 | 783.65 ± 0.6 | 778.202 ± 0.61 | 772.724 ± 0.62 | 767.215 ± 0.62 | 756.09 ± 0.64 | 1276.4 ± 1.2
m1 = 0.05609 | 795.839 ± 0.59 | 790.436 ± 0.59 | 785.044 ± 0.6 | 779.559 ± 0.61 | 774.08 ± 0.61 | 768.567 ± 0.62 | 757.437 ± 0.64 | –
m1 = 0.06324 | 796.938 ± 0.59 | 791.534 ± 0.59 | 786.108 ± 0.6 | 780.651 ± 0.61 | 775.17 ± 0.61 | 769.655 ± 0.62 | 758.516 ± 0.63 | 1275.7 ± 1.2
m1 = 0.07124 | 798.167 ± 0.59 | 792.766 ± 0.59 | 787.332 ± 0.6 | 781.876 ± 0.61 | 776.393 ± 0.61 | 770.874 ± 0.62 | 759.73 ± 0.63 | –
m1 = 0.07952 | 799.446 ± 0.58 | 794.033 ± 0.59 | 788.597 ± 0.6 | 783.143 ± 0.6 | 777.651 ± 0.61 | 772.126 ± 0.62 | 760.98 ± 0.63 | 1275.1 ± 1.2
m1 = 0.09524 | 801.876 ± 0.58 | 796.466 ± 0.59 | 791.02 ± 0.59 | 785.546 ± 0.6 | 780.047 ± 0.61 | 774.52 ± 0.61 | 763.359 ± 0.63 | –
m1 = 0.1099 | 804.162 ± 0.58 | 798.743 ± 0.59 | 793.295 ± 0.59 | 787.86 ± 0.6 | 782.357 ± 0.61 | 776.822 ± 0.61 | 765.649 ± 0.63 | 1273.6 ± 1.2
m1 = 0.1252 | 806.567 ± 0.58 | 801.138 ± 0.58 | 795.677 ± 0.59 | 790.202 ± 0.6 | 784.687 ± 0.6 | 779.149 ± 0.61 | 767.969 ± 0.62 | –
m1 = 0.1317 | 807.593 ± 0.58 | 802.157 ± 0.58 | 796.698 ± 0.59 | 791.221 ± 0.59 | 785.702 ± 0.6 | 780.162 ± 0.61 | 768.971 ± 0.62 | 1272.5 ± 1.2
m1 = 0.1402 | 808.922 ± 0.57 | 803.487 ± 0.58 | 798.026 ± 0.59 | 792.539 ± 0.59 | 787.024 ± 0.6 | 781.476 ± 0.61 | 770.273 ± 0.62 | –
m1 = 0.1554 | – | – | – | – | – | – | – | 1271.2 ± 1.2
